According to patent US11634458B2, “Peptides and compositions for use in cosmetics and medicine” (LIPOTRUE, S.L., priority 2018, dated 2023):

What was measured:
[1] = tested on: LAN cells; test: Measurement of acetylcholine release in differentiated LAN cells stimulated with 50 mM KCl; type: cell-based; details: 1 hour treatment, 0.001, 0.005 and 0.01 mg/mL (Ac-SEQ ID NO: 8-NH2: 0.005 and 0.05 mg/mL)
Experimental: Said peptides were tested for their ability to modulate acetylcholine release in vitro. To that end, LAN cells were seeded on 48-well culture plates and allowed to reach the appropriate confluence under controlled conditions (37° C., 5% CO2) before inducing differentiation by replacing the culture media with Neurobasal® A media, supplemented with N-2 Supplement, GlutaMAX™, choline chloride and Leukemia Inhibition factor (GIBCO, Life technologies, MA, USA). Once the cells acquired its differentiated morphology, they were treated with the peptides mentioned above at the following concentrations for 1 hour: all peptides, except Ac-SEQ ID NO: 8-NH2, at 0.001 mg/mL, 0.005 mg/mL and 0.01 mg/mL; and peptide Ac-SEQ ID NO: 8-NH2 at 0.005 mg/mL and 0.05 mg/mL. Cells were then washed with HEPES, before stimulation of acetylcholine release by depolarization with external 50 mM KCl solution. Non-stimulated cells were incubated with non-depolarizing 4 mM KCl solution. After 30 minutes of incubation with the corresponding depolarizing or non-depolarizing KCl solution, cell supernatants were collected and used to measure acetylcholine levels with Amplex Red Acetylcholine Assay Kit (ThermoFisher Scientific, MA, USA). Cell pellets were used to determine protein content by BCA Protein Test Assay (Pierce BCA Protein Assay kit, ThermoFisher Scientific, MA, USA) (for data normalization purposes).
Percentage of acetylcholine release inhibition was calculated considering 100% release for the positive control (non-treated stimulated with KCl cells).

[2] = tested on: human skeletal muscle cells; test: Calcium mobilization assay (Fluo-4 NW) after 60 mM KCl; type: cell-based; details: 48 hours, vs untreated control
Experimental: The potential of said peptide Ac-SEQ ID NO: 8-NH2 to reduce calcium mobilization on human skeletal muscle cells was evaluated in vitro with Fluo-4 NW Calcium Assay Kit (ThermoFisher Scientific, MA USA). Briefly, human skeletal muscle myoblasts were seeded in quintuplicates in a black 96-well plate, clear bottom, at a density of 1×10^4 cells/well and maintained at standard culture conditions (37° C., 95% humidity, 5% CO2) for 48-72h. Myoblast differentiation to myocyte was then induced with specific differentiation medium (SKM-D medium+1% a/a) and monitored for 7 more days. Differentiated cells were treated with non-cytotoxic concentrations of peptide Ac-SEQ ID NO: 8-NH2 (0.01 mg/mL, 0.05 mg/mL and 0.1 mg/mL) for additional 48 hours.
Once incubation was finished, cell culture medium was replaced by 100 μl of Dye loading solution and the plate was kept on the incubator for 30 minutes. Dye solution was then replaced by assay buffer prior to calcium measurement using FLUOstar Omega instrument (BMG Labtech, Germany). For appropriate kinetic measurement, a pre-stimulus phase of 10 seconds was set to determine the baseline signal before induction of calcium influx by addition of 60 mM KCl. Post-stimulus phase was set at 90 seconds, with readings every 0.1 seconds at 494/516 nm (excitation/emission).
The following steps were performed for data analysis: 1) Calculation of a mean kinetic curve for each condition; 2) determination of maximum fluorescent signal for each curve after stimulation with KCl; 3) calculation of the fold change increase versus baseline; 4) normalization of results obtained for each condition (each peptide concentration) versus the one obtained for the control (untreated cells).

[3] = tested on: myosin heavy chain; test: Myosin heavy chain protein decrease by immunofluorescence; type: cell-based, human; details: vs non-treated cells; for reduction of myosin heavy chain protein levels: 48 hours
Experimental: The potential of said peptide Ac-SEQ ID NO: 8-NH2 to decrease the expression of the protein myosin heavy chain in human skeletal muscle cells was evaluated in vitro by immunofluorescence using a specific antibody against this protein (Biotechne, USA) followed by a secondary fluorescent antibody (Thermofisher, USA). Briefly, human skeletal muscle myoblasts were seeded onto coverslips in SKM-M medium (Tebu-Bio, France) at a density of 3×10^4 cells/cm^2 and incubated overnight at standard culture conditions (37° C., 95% humidity, 5% CO2). Myoblast differentiation to myocyte was then induced with specific differentiation medium (Skeletal Muscle Cell Differentiation Medium, SKM-D medium) and monitored for 7 more days. Differentiated cells were treated with non-cytotoxic concentrations of peptide Ac-SEQ ID NO: 8-NH2 (0.05 mg/mL and 0.5 mg/mL) for additional 48 hours.
Once incubation was finished, cells were fixed with 4% PFA and permeabilized using 0.1% (v/v) Triton (Sigma, USA). Myosin was then stained with 0.5 mg/ml myosin heavy chain antibody during 2 h at room temperature. After proper washing, actin protein was labelled with 50 μg/ml Phalloidin (red) (Sigma, USA) for 1 h and, after washing, cells were stained with 4 μg/ml of the secondary antibody Goat anti-Mouse IgG for 1 h. Finally, nuclei were stained with 3.5 μg/ml Hoescht marker for 10 min (Sigma, USA).
Microscopic images were acquired using the 5× and 10× objectives. Three replicates were used for each condition and images of three to four fields of each coverslip were acquired using the same settings.
Images were analyzed using Image J software. Shortly, threshold was adjusted to select myosin and mean fluorescent was measured. The number of positive cells was counted using DAPI staining. Myosin mean fluorescent intensity was divided by the number of myosin-positive cells. Finally, all data was normalized as follows to obtain the % of myosin compared to non-treated cells: % vs. control=(fluorescence per cell in treated wells/fluorescence per cell in non-treated wells)×100.

For “Ac-His-Ala-Leu-Arg-Phe-Trp-NH2 [Ac-SEQ ID NO: 8-NH2]”, which “Result: modulation of acetylcholine release” value [1] is on record?
Its value is “Active in the modulation of”.

What about the “reduction of calcium influx” value ([2]; 0.01 mg/mL) of the same substance?
The value was −6%.

What about the “reduction of calcium influx” value ([2]; 0.05 mg/mL) of the same substance?
The value was −20%.

And the “reduction of calcium influx” value ([2]; 0.1 mg/mL)?
Its value is −30%.

What about the “reduction of myosin heavy chain protein levels” value ([3]; 0.05 mg/mL) of the same substance?
Its value is −26%.

And the “myosin heavy chain protein levels (representative images, FIG. 5)” value ([3]; 0.05 mg/mL)?
Its value is “reduction of myosin heavy chain protein levels”.

What about the “reduction of myosin heavy chain protein levels” value ([3]; 0.5 mg/mL) of the same substance?
The value was −38%.
